Assay results: publication PMC4550478, “Metronidazole-triazole conjugates: Activity against Clostridium difficile and parasites” (European Journal of Medicinal Chemistry, 2015)
≈ marks a conversion by molar mass, not a printed value. Like-named read-outs stand apart in the source and are kept apart here.

Key:
[1] = system: C. difficile NAP1/027 CD26A54_R; assay: MIC broth microdilution, metronidazole resistant C. difficile CD26A54_R; type: cell-based, Clostridium difficile; conditions: for MIC: Clostridioides difficile
[2] = system: G. lamblia WB trophozoites; assay: ATP-bioluminescence growth and survival assay, G. lamblia WB; type: cell-based, Giardia lamblia; conditions: MtzS, 48 h, anaerobic, n = 3
Description: (§1) Compounds were tested for antiparasitic activity against E. histolytica (HM1:1MSS strain) and G. lamblia (WB, BRIS/87/HEPU/713 (713), BRIS/83/HEPU/106 (106) and the metronidazole resistant syngeneic line 713-M3 [[15,16]]) using an ATP-bioluminescence based screen for cell growth and survival [[17,18]]. Assay plates were inoculated with trophozoites (5 × 10^3 parasites/well) and incubated in the GasPak™ EZ Anaerobe Gas Generating Pouch Systems (VWR, West Chester, PA) to maintain anaerobic conditions throughout the incubation period. The assays were performed in triplicate using the CellTiter-Glo Luminescent Cell Viability Assay. Metronidazole was used as a positive control.
(§2) Trophozoites of E. histolytica strain HM1:IMSS and G. lamblia strains WB, BRIS/87/HEPU/713 (713),^10 BRIS/83/HEPU/106 (106)^11 and the metronidazole resistant syngenic line 713-M3^10,11 were axenically maintained in TYI-S-33 medium supplemented with penicillin (100 U/ml), streptomycin (100 µg/ml).^12 E. histolytica and G. lamblia trophozoites were counted using a particle counter (Beckman Coulter, Fullerton, CA). All experiments were performed using trophozoites harvested during the logarithmic phase of growth.
(§3) A three-fold serial dilution was then performed yielding a concentration range 0.25-625 µM. From this dilution plate, 4 µL were transferred into the 96-well screen plates followed by addition of 96 µL of trophozoites (5,000 parasites) to yield a final 8-point concentration range spanning 0.01- 25 µM. Assay plates were incubated for 48 h at 37 °C in the GasPak^TM EZ Anaerobe Gas Generating Pouch Systems (VWR, West Chester, PA) to maintain anaerobic condition throughout the incubation period. The assays were performed in triplicate using the CellTiter-Glo Luminescent Cell Viability Assay.^13

[3] = system: E. histolytica HM1:IMSS trophozoites; assay: ATP-bioluminescence growth and survival assay, E. histolytica; type: cell-based, Entamoeba histolytica; conditions: MtzS, 48 h, anaerobic, n = 3
Description: as §1, §2, §3

[4] = system: G. lamblia BRIS/87/HEPU/713 (713); assay: ATP-bioluminescence growth and survival assay, G. lamblia 713; type: cell-based; conditions: Giardia duodenalis; MtzS, purified compounds, this study; read-out: EC50 G. lamblia 713
Description: as §1, §2, §3

[5] = system: C. difficile NAP1/027 CD26A54_S; assay: MIC broth microdilution, C. difficile CD26A54_S; type: cell-based, Clostridium difficile; conditions: for MIC: Clostridioides difficile
[6] = system: C. difficile NAP1/027 ATCC BAA-1803; assay: MIC broth microdilution, C. difficile NAP1/027 ATCC BAA-1803; type: cell-based, Clostridium difficile; conditions: for MIC: Clostridioides difficile
Description: All compounds were tested for activity against a set of anaerobic C. difficile bacteria (630 ATCC BAA-1382, NAP1/027 M7404, NAP1/027 ATCC BAA-1803, VPI10463 ATCC 43255, CD26A54_S and CD26A54_R) and representative ESKAPE pathogens S. aureus (MRSA ATCC 43300), E. coli (ATCC 25922), K. pneumoniae (ATCC 700603), A. baumannii (ATCC 19606) and P. aeruginosa (ATCC 27853) using a standard broth microdilution assay. Selected compounds were tested for activity against H. pylori strains (26695, and clinical isolates MtzS 13/25, MtzR 98/285 and MtzR 13/61) using agar plate dilution, and for antimicrobial activity against […] Gram-positive bacterial strains: Enterococcus faecalis (VanA clinical isolate), Enterococcus faecium (MDR VanA ATCC 51559), Streptococcus pneumoniae (MDR ATCC 700677), S. aureus (MRSA ATCC 43300, MRSA clinical isolate, MRSA/DRSA clinical isolate, GISA NARSA NRS 1, GISA NARSA NRS 17, VRSA NARSA VRS1, VRSA NARSA VRS4 and VRSA NARSA VRS10) using broth microdilution. C. difficile strains were grown at 37 °C in a COY anaerobic chamber (5% H2, 10% CO2, 85% N2). H. pylori strains were grown at 37 °C under a microaerobic atmosphere (5% O2, 10% CO2). All facultative anaerobic bacteria were grown at 37 °C with normal atmospheric oxygen levels. All experiments were performed in duplicate with metronidazole, vancomycin, linezolid or colistin as positive controls for relevant strains (see Table 1). Positive growth control of bacteria and DMSO as well as a negative control of only media were included for every plate. Full assay details are provided in the supplementary information.
C. difficile ATCC BAA-1382, ATCC BAA-1803, ATCC 43255 and M7404 heat shocked spore stocks (10 µL) were transferred into the anaerobic chamber and 10 µL streaked onto pre-reduced (at least 2.5 hr in anaerobic chamber) BHIS agar plates supplemented with 0.1% w/v sodium taurocholate (BHIS(TA)). Plates were incubated for 24 hours prior to assay to give colonies of size 1-3mm diameter with characteristic uneven borders.
The minimum inhibition concentration was determined according to the CLSI Methods with modifications in broth and inoculum for C. difficile according to Babakhani et al.^7,8 Briefly, compounds were prepared to 20X final concentration in 100% water, 60% DMSO and 40% water or 60% DMSO and 40% media. The compounds along with standard antibiotics were serially diluted two-fold across the wells of 96-well non-binding surface plates (Non binding surface, Corning). The plates were placed in the anaerobic chamber overnight to reduce. C. difficile bacteria from BHIS(TA) agar plates were cultured anaerobically in BHIS at 37 °C overnight. A sample of culture was then diluted 40-fold in BHIS broth and incubated at 37 °C for approximately 4.5 hrs. The resultant mid-log phase culture (OD600= 0.5-0.6) was diluted to the final concentration of ~1×10^6 CFU/mL, then 50 µL was added to each well of the compound-containing 96-well plates. This gave final cell concentration of 5×10^5 CFU/mL, final volume 100 µL and 3% maximum DMSO concentration. Compound concentration was typically from 64 to 0.03 µg/mL. An antibiotic standard was included on each 96 well plate as well as a positive growth control (no compound) and sterility control (no bacteria). […] MICs were the lowest concentration showing no visible growth.

[7] = 24 hr incubation, read-out: MIC C. difficile NAP1/027 CD26A54_R 24 hr
[8] = CD26A54_R, MtzR, 48 h growth, BHIS broth, n = 8, read-out: MIC C. difficile NAP1/027 CD26A54_R 48 h
[9] = 24 hr incubation, read-out: MIC C. difficile NAP1/027 CD26A54_S 24 hr
[10] = CD26A54_S, MtzS (intermediary), 48 h growth, read-out: MIC C. difficile NAP1/027 CD26A54_S 48 h
[11] = ATCC 43255 / ATCC BAA-1803, NAP1/027 (footnote c: ATCC 43255), MtzS, 24 h, median of at least n = 4, read-out: MIC C. difficile NAP1/027 (footnote c)
[12] = ATCCBAA1803, 24 hr incubation, read-out: MIC C. difficile NAP1/027 ATCC BAA-1803 24 hr
[13] = ATCCBAA1803, 48 hr incubation, read-out: MIC C. difficile NAP1/027 ATCC BAA-1803 48 hr

Compound | MIC C. difficile NAP1/027 CD26A54_R 24 hr ([1]; 24 hr incubation) [µg/mL] | MIC [1, 7] [µg/mL] | MIC [1, 8] [µg/mL] | EC50 ([2]; Giardia duodenalis) [µM] | EC50 ([3]; Entamoeba histolytica) [µM] | EC50 [4] [µM] | MIC [5, 9] [µg/mL] | MIC [5, 10] [µg/mL] | MIC [6, 11] [µg/mL] | MIC [6, 12] [µg/mL] | MIC [6, 13] [µg/mL] | MIC C. difficile NAP1/027 CD26A54_R 48 h ([1]; CD26A54_R, MtzR, 48 h growth, BHIS broth, n = 8) [µg/mL] | EC50 [2] [µM] | EC50 [3] [µM] | MIC C. difficile NAP1/027 CD26A54_S 24 hr ([5]; 24 hr incubation) [µg/mL] | MIC C. difficile NAP1/027 CD26A54_S 48 h ([5]; CD26A54_S, MtzS (intermediary), 48 h growth) [µg/mL] | MIC C. difficile NAP1/027 ATCC BAA-1803 24 hr ([6]; 24 hr incubation) [µg/mL] | MIC C. difficile NAP1/027 ATCC BAA-1803 48 hr ([6]; 48 hr incubation) [µg/mL] | MIC C. difficile NAP1/027 (footnote c) ([6]; NAP1/027 (footnote c: ATCC 43255), MtzS, 24 h, median of at least n = 4) [µg/mL]
Cc1ncc([N+](=O)[O-])n1CCO [Compound 1, metronidazole] | 2 (≈ 11.7 µM) | 2 (≈ 11.7 µM) | 4 (≈ 23.4 µM) | 7.9 | 5 | 2.3 | 1 (≈ 5.84 µM) | 1 (≈ 5.84 µM) | 0.5 (≈ 2.92 µM) | 0.5 (≈ 2.92 µM) | 0.5 (≈ 2.92 µM) | – | – | – | – | – | – | – | –
Cc1ncc([N+](=O)[O-])n1CCN=[N+]=[N-] [Compound 3, 1-(2-azidoethyl)-2-methyl-5-nitro-1H-imidazole] | 4 (≈ 20.4 µM) | – | – | – | – | – | – | – | – | – | – | 8 (≈ 40.8 µM) | 1.5 | 2.1 | 2 (≈ 10.2 µM) | 2 (≈ 10.2 µM) | 0.5 (≈ 2.55 µM) | 1 (≈ 5.1 µM) | 0.5 (≈ 2.55 µM)
Cc1ncc([N+](=O)[O-])n1CCn1cc(Cn2cccn2)nn1 [Compound 4g, 1-(2-(2-methyl-5-nitro-1H-imidazol-1-yl)ethyl)-4-((1H-pyrazol-1-yl)methyl)-1H-1,2,3-triazole] | – | 4 (≈ 13.2 µM) | 4 (≈ 13.2 µM) | 4.9 | > 25 | – | 2 (≈ 6.62 µM) | 2 (≈ 6.62 µM) | 1 (≈ 3.31 µM) | 1 (≈ 3.31 µM) | 1 to 2 (≈ 3.31 to 6.62 µM) | – | – | – | – | – | – | – | –
Cc1ncc([N+](=O)[O-])n1CCn1cc(-c2cncnc2)nn1 [Compound 4i, 1-(2-(2-methyl-5-nitro-1H-imidazol-1-yl)ethyl)-4-(5-pyrimidinyl)-1H-1,2,3-triazole] | – | 2 (≈ 6.66 µM) | 4 (≈ 13.3 µM) | 3.3 | > 25 | – | 1 (≈ 3.33 µM) | 1 (≈ 3.33 µM) | 0.5 to 1 (≈ 1.67 to 3.33 µM) | 1 (≈ 3.33 µM) | 1 (≈ 3.33 µM) | – | – | – | – | – | – | – | –
Cc1ncc([N+](=O)[O-])n1CCn1cc(-c2ncccn2)nn1 [Compound 4j, 1-(2-(2-methyl-5-nitro-1H-imidazol-1-yl)ethyl)-4-(2-pyrimidinyl)-1H-1,2,3-triazole] | – | 4 (≈ 13.3 µM) | 4 (≈ 13.3 µM) | 1.7 | > 25 | – | 2 (≈ 6.66 µM) | 2 to 4 (≈ 6.66 to 13.3 µM) | 2 (≈ 6.66 µM) | 2 (≈ 6.66 µM) | 2 (≈ 6.66 µM) | – | – | – | – | – | – | – | –
Cc1ncc([N+](=O)[O-])n1CCn1cc(CN2CCS(=O)(=O)CC2)nn1 [Compound 4o, 1-(2-(2-methyl-5-nitro-1H-imidazol-1-yl)ethyl)-4-((1,1-dioxothiomorpholin-4-yl)methyl)-1H-1,2,3-triazole] | – | > 64 | > 64 | > 25 | > 25 | – | > 64 | > 64 | > 64 | > 64 | > 64 | – | – | – | – | – | – | – | –
Cc1ncc([N+](=O)[O-])n1CCn1cc(CCO)nn1 [Compound 4p, 1-(2-(2-methyl-5-nitro-1H-imidazol-1-yl)ethyl)-4-(2-hydroxyethyl)-1H-1,2,3-triazole] | – | 8 to 16 (≈ 30 to 60.1 µM) | 16 (≈ 60.1 µM) | > 25 | > 25 | – | 8 (≈ 30 µM) | 8 (≈ 30 µM) | 16 (≈ 60.1 µM) | 8 (≈ 30 µM) | 8 to 16 (≈ 30 to 60.1 µM) | – | – | – | – | – | – | – | –
Cc1ncc([N+](=O)[O-])n1CCn1cc(CO)nn1 [Compound 4q, 1-(2-(2-methyl-5-nitro-1H-imidazol-1-yl)ethyl)-4-(hydroxymethyl)-1H-1,2,3-triazole] | – | 16 (≈ 63.4 µM) | 16 (≈ 63.4 µM) | > 25 | > 25 | – | 16 (≈ 63.4 µM) | 16 to 32 (≈ 63.4 to 127 µM) | 16 to 32 (≈ 63.4 to 127 µM) | 16 (≈ 63.4 µM) | 16 to 32 (≈ 63.4 to 127 µM) | – | – | – | – | – | – | – | –
Cc1ncc([N+](=O)[O-])n1CCn1cc(CCC(=O)O)nn1 [Compound 4r, sodium 1-(2-(2-methyl-5-nitro-1H-imidazol-1-yl)ethyl)-4-(carboxyethyl)-1H-1,2,3-triazole] | – | > 64 | > 64 | > 25 | > 25 | – | > 64 | > 64 | > 64 | > 64 | > 64 | – | – | – | – | – | – | – | –
Cc1ncc([N+](=O)[O-])n1CCn1cc(C(=O)O)nn1 [Compound 4s, 1-(2-(2-methyl-5-nitro-1H-imidazol-1-yl)ethyl)-4-(carboxy)-1H-1,2,3-triazole] | – | > 64 | > 64 | > 25 | > 25 | – | > 64 | > 64 | 64 (≈ 240 µM) | 64 (≈ 240 µM) | 64 (≈ 240 µM) | – | – | – | – | – | – | – | –
Cc1ncc([N+](=O)[O-])n1CCn1cc(CN)nn1.O=C(O)C(F)(F)F [Compound 4t, 1-(2-(2-methyl-5-nitro-1H-imidazol-1-yl)ethyl)-4-(aminomethyl)-1H-1,2,3-triazole trifluoroacetate salt] | – | > 64 | > 64 | > 25 | > 25 | – | > 64 | > 64 | > 64 | > 64 | > 64 | – | – | – | – | – | – | – | –
